Measured values taken from US20220160734A1, “TREATMENT OF FIBROIDS WITH VITAMIN D AND AN AGENT SUCH AS EPIGALLOCATECHIN GALLATE (EGCG)” (LO.LI. PHARMA S.R.L., priority 2019, published 2022).

Assays:
[1] = test system: human uterine fibroid cells; conditions: in vitro; cited from earlier work
uterine fibroids [2] = conditions: animal models; cited from earlier work
[3] = test system: collagen release in cultured fibroblasts; test: Collagen release in TGF-β1-stimulated fibroblasts, western blot; assay type: cell-based, human; conditions: Phase I, 18 days culture, 24 h TGF-β1 10 ng/ml, then 24 h treatment, vitamin D3 0.005 μg/ml, EGCG 0.03 mg/ml, FIG. 2
Text: (§1) Anti-fibrotic properties of epigallocatechin gallate (EGCG) and vitamin D3 (alone or in combination) have been preliminary tested in human normal fibroblasts in 2D cultures. Human normal fibroblasts used in this experiment are Primary cell cultures. To discard any effect on fibroblast viability, proliferation and apoptosis were also investigated. Fibroblasts culture: DMEM, 10% FBS, 1% L-Glu, 1% Pen/strep for 18 days; Fibroblasts were allowed to grow in the above fibroblast culture for 18 days until reaching 50% confluence. Then, the fibrotic process was fostered by adding 10 ng/ml TGF-β1 (Peprotech, cat no. #100-21-10UG). 24 hours after addition of TGF-β1, fibroblasts were thoroughly washed with PBS, fresh fibroblast culture medium and the below formulas were added. Fibroblasts were then allowed to grow for an additional 24 hours.
Vitamin D3 (cholecalciferol, CAS-No. 67-97-0): 0.005 μg/ml in DMSO. Vitamin D3 was dissolved in DMSO and after that further dilutions were made in PBS. Essentially, the cells receive the same “dose” of DMSO, this allows a clean comparison of the test. In this case, DMSO 1:10000 was used;
EGCG (GREEN TEA DRY EXTRACT 95% POLYPHENOLS; CAS-No. 84650-60-2): 0.03 mg/ml in H2O;
combined treatment: EGCG 0.03 mg/ml+vitamin D3 0.005 μg/ml;
control: vehicle only (DMSO);
(§2) Fibronectin and collagen release were both measured in western blot for assessing the anti-fibrotic effect. […]
(§3) Fibronectin and collagen release from fibroblasts were analyzed at 24 hours after addition of EGCG or vitamin D3 in previously stimulated fibroblast, as described above. […]
Data are reported in FIGS. 3 A-B and 4 A-B and expressed as fold-decrease of OD-Units in respect to the control value, which was obtained for fibroblasts after 24 hours of stimulation with TGF-β1 (e.g. a decrease of 50% between two measurements would be referred to a “half-fold change”). Fold change is a measure describing how much a quantity changes between an original and a subsequent measurement. It is defined as the ratio between the two quantities; for quantities A and B, then the fold change of B with respect to A is B/A.

uterine fibroid tumors = conditions: mice; cited from earlier work
uterine fibroids [4] = conditions: women with uterine fibroids after treatment with EGCG; cited from earlier work
human normal fibroblasts = test: Fibroblast proliferation, viability and morphology; conditions: Phase I; vitamin D3 0.005 μg/ml, EGCG 0.03 mg/ml; data not shown
Text: as §1

[5] = test system: fibronectin release in cultured fibroblasts; test: Fibronectin release in TGF-β1-stimulated fibroblasts, western blot; assay type: cell-based, human; conditions: Phase I; 18 days culture, 24 h TGF-β1 10 ng/ml, then 24 h treatment; vitamin D3 0.005 μg/ml, EGCG 0.03 mg/ml; FIG. 1
Text: as §1, with “24 hours after addition of TGF-β1, fibroblasts were thoroughly washed with PBS, fresh fibroblast culture medium and the below formulas were added. Fibroblasts were then allowed to grow for an additional 24 hours.” left out
as §2, §3
Data are reported in FIGS. 3 A-B and 4 A-B and expressed as fold-decrease of OD-Units in respect to the control value, which was obtained for fibroblasts after 24 hours of stimulation with TGF-β1 (e.g. a decrease of 50% between two measurements would be referred to a “half-fold change”). Fold change is a measure describing how much a quantity changes between an original and a subsequent measurement. […]

SMILES | uterine fibroid cell proliferation [1] | size of uterine fibroids / uterine fibroid tumor growth (uterine fibroids [2]) | apoptosis in human uterine fibroid cells [1] | collagen release (production) [3] | volume of uterine fibroid tumors (uterine fibroid tumors) | reduction in the total fibroid volume (uterine fibroids [4]) [%] | fibroblasts proliferation rate (human normal fibroblasts) | fibroblasts viability (human normal fibroblasts) | fibronectin release (production) [5] | collagen release (production) ([3]; listed as Vitamin D)
C=C1/C(=C\C=C2/CCC[C@]3(C)[C@@H]([C@H](C)CCCC(C)(C)O)CC[C@@H]23)C[C@@H](O)C[C@@H]1O [1,25-dihydroxyvitamin D] | inhibits | decreases the size | – | – | – | – | – | – | – | –
O=C(O[C@@H]1Cc2c(O)cc(O)cc2O[C@@H]1c1cc(O)c(O)c(O)c1)c1cc(O)c(O)c(O)c1 [EGCG, epigallocatechin gallate] | inhibits proliferation | – | induces apoptosis | significantly reduces | reduces the volume | 32.6 | does not significantly modify | does not significantly modify | significantly reduces | –
C=C1CC[C@H](O)C/C1=C/C=C1\CCC[C@]2(C)[C@@H]([C@H](C)CCCC(C)C)CC[C@@H]12 [Vitamin D3, cholecalciferol] | reduces | reduces | – | significantly reducing | – | – | does not significantly modify | does not significantly modify | slightly increases | reduces
